Experimental data from patent publication US20140221424A1, “PHARMACEUTICAL COMPOSITIONS FOR USE IN THE TREATMENT OF CYSTIC FIBROSIS” (Vertex Pharmaceuticals Incorporated, priority 2013, published 2014).
≈ marks a conversion by molar mass, not a printed value. Where two headings read alike, the source gives them in different places.

Key:
[1] = system: CYP3A; assay: Drug interaction studies: other drugs on ivacaftor exposure; format: in vivo, human
Procedure: Drug interaction studies were performed with KALYDECO™ and other drugs likely to be co-administered or drugs commonly used as probes for pharmacokinetic interaction studies [see Drug Interactions (subsection 7 of section V)].
(§1) The data obtained for KALYDECO™ without co-administration of inducers or inhibitors are used as reference.

[2] = system: rats; assay: Teratogenicity in rats; format: in vivo, rat; details: maternal dose 200 mg/kg/day, approximately 6 times the MRHD
Source text: (§2) There are no adequate and well-controlled studies of KALYDECO™ in pregnant women. […] Because animal reproduction studies are not always predictive of human response, KALYDECO™ should be used during pregnancy only if clearly needed.

[3] = system: rabbits; assay: Teratogenicity in rabbits; format: in vivo, rabbit; details: maternal dose 100 mg/kg/day, approximately 12 times the MRHD
Source text: as §2

[4] = system: pregnant rats; assay: Placental transfer in pregnant rats; format: in vivo, rat
Source text: as §2

[5] = system: pregnant rabbits; assay: Placental transfer in pregnant rabbits; format: in vivo, rabbit
Source text: as §2

[6] = system: lactating female rats; assay: Excretion into milk of lactating rats; format: in vivo, rat
Procedure: Excretion of ivacaftor into human milk is probable. There are no human studies that have investigated the effects of ivacaftor on breast-fed infants. Caution should be exercised when KALYDECO™ is administered to a nursing person.

[7] = system: healthy subjects; assay: Thorough QT study (ECG evaluation); format: in vivo, human; details: 150 mg and 450 mg twice daily, 72 healthy subjects
Procedure: The highest repeated dose was 450 mg (in a tablet formulation) every 12 hours for 4.5 days (9 doses) in a trial evaluating the effect of KALYDECO™ on ECGs in healthy subjects.
The effect of multiple doses of ivacaftor 150 mg and 450 mg twice daily on QTc interval was evaluated in a randomized, placebo- and active-controlled (moxifloxacin 400 mg) four-period crossover thorough QT study in 72 healthy subjects.

[8] = Solubility in water; format: physicochemical; details: practically insoluble
Source text: Ivacaftor is a white to off-white powder that is practically insoluble in water (<0.05 microgram/mL).

[9] = Clinical pharmacokinetics after oral administration; format: in vivo, human
Procedure: After every 12 hour dosing, steady-state plasma concentrations of ivacaftor were reached by days 3 to 5, with an accumulation ratio ranging from 2.2 to 2.9.
The exposure of ivacaftor increased approximately 2- to 4-fold when given with food containing fat. Therefore, KALYDECO™ should be administered with fat-containing food. Examples of fat-containing foods include eggs, butter, peanut butter, and cheese pizza. The median (range) tmax is approximately 4.0 (3.0; 6.0) hours in the fed state.
The mean apparent volume of distribution (Vz/F) of ivacaftor after a single dose of 275 mg of KALYDECO™ in the fed state was similar for healthy subjects and patients with CF. After oral administration of 150 mg every 12 hours for 7 days to healthy volunteers in a fed state, the mean (±SD) for apparent volume of distribution was 353 (122) L.
(§3) Following oral administration, the majority of ivacaftor (87.8%) is eliminated in the feces after metabolic conversion. The major metabolites M1 and M6 accounted for approximately 65% of the total dose eliminated with 22% as M1 and 43% as M6. There was negligible urinary excretion of ivacaftor as unchanged parent. […] The mean apparent clearance (CL/F) of ivacaftor was similar for healthy subjects and patients with CF.

[10] = Plasma protein binding; format: in vitro ADME; details: human
Source text: Ivacaftor is approximately 99% bound to plasma proteins, primarily to alpha 1-acid glycoprotein and albumin.

[11] = system: human red blood cells; assay: Binding to red blood cells; format: in vitro ADME
[12] = system: CYP3A enzymes (i.e., CYP3A4 and CYP3A5); assay: Metabolism by CYP3A (in vitro and clinical studies); format: in vitro ADME, human; details: for substrate of CYP3A enzymes (CYP3A4 and CYP3A5): in vitro studies
Source text: (§4) Ivacaftor is extensively metabolized in humans. […] M1 and M6 are the two major metabolites of ivacaftor in humans. M1 has approximately one-sixth the potency of ivacaftor and is considered pharmacologically active. M6 has less than one-fiftieth the potency of ivacaftor and is not considered pharmacologically active.
as §1

[13] = Elimination / human PK study with radioactivity; format: in vivo; details: for share of the total dose eliminated as this metabolite: po
Source text: as §3
KALYDECO™ has not been studied in patients with mild, moderate or severe renal impairment (creatinine clearance less than or equal to 30 mL/min) or in patients with end stage renal disease. No dose adjustments are recommended for mild and moderate renal impairment patients because of minimal elimination of ivacaftor and its metabolites in urine (only 6.6% of total radioactivity was recovered in the urine in a human PK study); however, caution is recommended when administering KALYDECO™ to patients with severe renal impairment or end stage renal disease.

[14] = Pharmacokinetics in moderate hepatic impairment; format: in vivo, human
Procedure: Therefore, a reduced KALYDECO™ dose of 150 mg once daily is recommended for patients with moderate hepatic impairment. The impact of mild hepatic impairment (Child-Pugh Class A) on pharmacokinetics of ivacaftor has not been studied, but the increase in ivacaftor AUC0-∞ is expected to be less than two-fold. Therefore, no dose adjustment is necessary for patients with mild hepatic impairment. The impact of severe hepatic impairment (Child-Pugh Class C, score 10-15) on pharmacokinetics of ivacaftor has not been studied. […] When benefits are expected to outweigh the risks, KALYDECO™ should be used with caution in patients with severe hepatic impairment at a dose of 150 mg given once daily or less frequently.
Therefore, a reduced dose of 150 mg once daily is recommended in patients with moderate hepatic impairment.

[15] = system: mice; assay: Two-year carcinogenicity study in mice; format: in vivo, mouse; details: oral doses up to 200 mg/kg/day
Procedure: (§5) Two-year studies were conducted in mice and rats to assess carcinogenic potential of KALYDECO™.

[16] = system: rats; assay: Two-year carcinogenicity study in rats; format: in vivo, rat; details: oral doses up to 50 mg/kg/day
Procedure: as §5

[17] = system: bacterial gene mutation; assay: Ames test for bacterial gene mutation; format: cell-based
Source text: (§6) Ivacaftor was negative for genotoxicity in the following assays: Ames test for bacterial gene mutation, in vitro chromosomal aberration assay in Chinese hamster ovary cells, and in vivo mouse micronucleus test.

[18] = system: Chinese hamster ovary cells; assay: In vitro chromosomal aberration assay; format: cell-based; details: CHO cells
Source text: as §6

[19] = system: mouse; assay: In vivo mouse micronucleus test
Source text: as §6

[20] = system: male and female rats; assay: Fertility and reproductive performance in rats; format: in vivo, rat
Procedure: Ivacaftor impaired fertility and reproductive performance indices in male and female rats at 200 mg/kg/day (approximately 5 and 6 times, respectively, the MRHD based on summed AUCs of ivacaftor and its metabolites). […] These impairments of fertility and reproductive performance in male and female rats at 200 mg/kg/day were attributed to severe toxicity.

[21] = system: juvenile rats; assay: Juvenile rat toxicology; format: in vivo; details: juvenile rats dosed postnatal day 7-35, 10 mg/kg/day and higher
Source text: This finding has not been observed in older animals.

[22] = system: patients with a G551D mutation; assay: Population PK/PD analysis (Emax model) of FEV1 versus ivacaftor exposure; design: species or system human; details: pooled Phase 2a and Phase 3 data
Source text: Therefore, median Cmin at EC90 was chosen as the target PK parameter for efficacy.

[23] = target: T1, G551D-CFTR protein (Homo sapiens, UniProt P13569, G551D); assay: CFTR-mediated transepithelial current (IT) in rodent cells expressing G551D-CFTR; format: cell-based; design: expressed in transfected cells
T1 sequence (P13569 whole entry G551D): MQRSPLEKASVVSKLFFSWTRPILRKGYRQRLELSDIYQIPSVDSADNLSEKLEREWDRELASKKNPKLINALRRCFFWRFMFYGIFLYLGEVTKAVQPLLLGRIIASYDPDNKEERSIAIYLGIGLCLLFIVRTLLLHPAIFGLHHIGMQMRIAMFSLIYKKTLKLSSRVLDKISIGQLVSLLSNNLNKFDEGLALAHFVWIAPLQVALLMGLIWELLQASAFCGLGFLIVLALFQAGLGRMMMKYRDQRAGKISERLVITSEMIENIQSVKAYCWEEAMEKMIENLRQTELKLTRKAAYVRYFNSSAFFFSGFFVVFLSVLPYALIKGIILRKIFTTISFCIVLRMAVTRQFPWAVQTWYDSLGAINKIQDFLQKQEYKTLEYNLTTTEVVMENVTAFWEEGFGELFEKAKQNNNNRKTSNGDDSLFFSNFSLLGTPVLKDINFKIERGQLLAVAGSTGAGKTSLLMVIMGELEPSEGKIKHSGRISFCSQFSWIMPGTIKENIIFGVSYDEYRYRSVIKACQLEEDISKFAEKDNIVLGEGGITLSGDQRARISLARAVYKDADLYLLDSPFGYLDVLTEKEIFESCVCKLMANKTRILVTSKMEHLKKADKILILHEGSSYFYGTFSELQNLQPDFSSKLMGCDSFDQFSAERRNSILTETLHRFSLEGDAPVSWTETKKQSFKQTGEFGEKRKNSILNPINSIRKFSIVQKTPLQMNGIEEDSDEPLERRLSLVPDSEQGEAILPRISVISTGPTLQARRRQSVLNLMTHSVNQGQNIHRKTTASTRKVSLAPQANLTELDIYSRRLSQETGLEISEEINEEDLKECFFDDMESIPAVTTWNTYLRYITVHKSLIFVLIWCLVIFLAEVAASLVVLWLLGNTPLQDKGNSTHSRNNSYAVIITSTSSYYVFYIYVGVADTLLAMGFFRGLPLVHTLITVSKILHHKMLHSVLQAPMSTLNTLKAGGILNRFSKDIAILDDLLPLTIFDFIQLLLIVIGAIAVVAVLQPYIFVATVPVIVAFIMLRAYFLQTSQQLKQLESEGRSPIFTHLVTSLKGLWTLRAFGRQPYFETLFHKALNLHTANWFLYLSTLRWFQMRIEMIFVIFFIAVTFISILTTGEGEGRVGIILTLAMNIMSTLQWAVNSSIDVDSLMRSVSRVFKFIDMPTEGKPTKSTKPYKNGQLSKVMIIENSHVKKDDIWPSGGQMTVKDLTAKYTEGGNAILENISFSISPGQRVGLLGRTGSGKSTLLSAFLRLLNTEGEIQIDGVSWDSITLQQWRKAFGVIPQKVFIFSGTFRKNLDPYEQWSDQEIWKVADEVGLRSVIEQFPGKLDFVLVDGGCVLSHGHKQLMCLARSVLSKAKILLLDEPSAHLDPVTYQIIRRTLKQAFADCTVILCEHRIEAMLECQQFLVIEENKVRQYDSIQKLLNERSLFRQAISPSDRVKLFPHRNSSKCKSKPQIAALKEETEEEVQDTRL

[24] = target: T1, G551D-CFTR protein; assay: Single channel patch clamp, membrane patches from rodent cells expressing G551D-CFTR; format: biochemical; design: expressed in transfected cells; details: versus untreated cells, after addition of PICA and ATP
[25] = target: T1, G551D-CFTR protein; assay: Transepithelial current (IT) in human bronchial epithelial cells expressing G551D-CFTR; format: cell-based; design: endogenous in cells; host or cells: human bronchial epithelial cells
[26] = Potency of metabolites relative to ivacaftor
Source text: as §4

[27] = moderately impaired hepatic function (Child-Pugh Class B, score 7 to 9)
[28] = rats, 200 mg/kg/day, dams dosed prior to and during early pregnancy

SMILES: CC(C)(C)c1cc(C(C)(C)C)c(NC(=O)c2c[nH]c3ccccc3c2=O)cc1O [Ivacaftor, N-[2,4-bis(1,1-dimethylethyl)-5-hydroxyphenyl]-1,4-dihydro-4-oxoquinoline-3-carboxamide]
- increase of ivacaftor exposure ([1]; co-administration with fluconazole, a moderate inhibitor of CYP3A): 3 fold
- increase of ivacaftor exposure (AUC) ([1]; co-administration with ketoconazole, a strong CYP3A inhibitor): 8.5 fold
- decrease of ivacaftor exposure (AUC) ([1]; co-administration with rifampin, a strong CYP3A inducer): approximately 9 fold
- teratogenic effects [2]: not teratogenic
- teratogenic effects [3]: not teratogenic
- placental transfer [4]: observed
- placental transfer [5]: observed
- excretion into milk [6]: excreted into the milk
- upper bound of the one-sided 95% confidence interval for the largest placebo adjusted, baseline-corrected QTcF [7]: below 10 ms
- solubility [8]: < 0.05 µg/mL
- apparent volume of distribution, mean (±SD) ([9]; 150 mg orally every 12 hours for 7 days, healthy volunteers, fed state): 353 (122) L
- increase of exposure when given with food containing fat ([9]; human, in vivo): 2-4 fold
- mean apparent clearance (CL/F), healthy subjects versus patients with CF ([9]; human, in vivo): similar
- pharmacokinetics, healthy adult volunteers versus patients with CF ([9]; human, in vivo): similar
- Tmax ([9]; human, in vivo, fed state, read-out: median (range) tmax): ~4 h
- half-life ([9]; human, in vivo, following a single dose, read-out: apparent terminal half-life (converted)): ~12 h
- AUC ([9]; human, in vivo, single 150 mg oral dose, healthy volunteers, fed state, read-out: AUC, mean (±SD)): 10600 ng·h/mL
- Cmax ([9]; human, in vivo, single 150 mg oral dose, healthy volunteers, fed state, read-out: Cmax, mean (±SD)): 768 ng/mL
- Tmax ([9]; human, in vivo, single 150 mg oral dose, healthy volunteers, fed state, read-out: time of peak plasma concentrations (Tmax)): ~4 h
- mean apparent volume of distribution (Vz/F), healthy subjects versus patients with CF ([9]; single dose of 275 mg, fed state): similar
- fraction unbound [10]: ~0.01
- binding to human red blood cells [11]: does not bind
- primary route of metabolism ([12]; in vitro and clinical studies): primarily metabolized by CYP3A
- substrate of CYP3A enzymes (CYP3A4 and CYP3A5) [12]: substrates
- urinary excretion as unchanged parent ([13]; in vivo): negligible
- total radioactivity recovered in the urine ([13]; ivacaftor and its metabolites, human PK study): 6.6%
- AUC(0-inf) ([14]; human, in vivo, oral, single dose of 150 mg, moderately impaired hepatic function, read-out: AUC0-∞, mean (±SD)): 16800 ng·h/mL
- Cmax ([14]; human, in vivo, oral, single dose of 150 mg, moderately impaired hepatic function, read-out: Cmax, mean (±SD)): 735 ng/mL
- Cmax compared with healthy subjects matched for demographics [14, 27]: similar
- increase in AUC0-∞ compared with healthy subjects matched for demographics [14, 27]: approximately two-fold
- tumorigenicity [15]: No evidence of tumorigenicity
- tumorigenicity [16]: No evidence of tumorigenicity
- genotoxicity [17]: negative
- genotoxicity [18]: negative
- genotoxicity [19]: negative
- prolonged diestrus ([20]; female rats, 200 mg/kg/day): Increases
- fertility and reproductive performance indices ([20]; male and female rats, 200 mg/kg/day, attributed to severe toxicity): impaired
- fertility and reproductive performance indices ([20]; male or female rats, ≦100 mg/kg/day (approximately 3 times the MRHD)): No effects
- corpora lutea, implantations, and viable embryos [20, 28]: decreased
- number of females with all nonviable embryos [20, 28]: increased
- cataracts [21]: Cataracts were seen
- EC50, FEV1 versus ivacaftor exposure, Emax model [22]: 0.045 µg/mL (≈ 0.115 µM)
- EC90, FEV1 versus ivacaftor exposure, Emax model [22]: 0.405 µg/mL (≈ 1.03 µM)
- increase of IT in the absence of cAMP agonist [23]: did not increase
- EC50 ([23]; following addition of a cAMP agonist, read-out: EC50, increase of CFTR-mediated transepithelial current (IT)): 100 ± 47 nM
- increase of open probability of G551D-CFTR protein [24]: 6 fold
- EC50 [25]: 236 ± 200 nM
- increase of IT ([25]; human bronchial epithelial cells expressing G551D-CFTR, following addition of a cAMP agonist): 10 fold

SMILES: CC(C)(C)c1cc(C(C)(C)CO)c(O)cc1NC(=O)c1c[nH]c2ccccc2c1=O [M1, hydroxymethyl-ivacaftor]
- increase of M1 exposure ([1]; ivacaftor co-administered with fluconazole): 1.9 fold
- increase of M1 exposure ([1]; ivacaftor co-administered with ketoconazole): 1.7 fold
- substrate of CYP3A enzymes (CYP3A4 and CYP3A5) [12]: substrates
- potency relative to ivacaftor [26]: approximately one-sixth
- share of the total dose eliminated as this metabolite ([13]; in vivo): 22%

SMILES: CC(C)(C)c1cc(C(C)(C)C(=O)O)c(O)cc1NC(=O)c1c[nH]c2ccccc2c1=O [M6]
- potency relative to ivacaftor [26]: less than one-fiftieth
- share of the total dose eliminated as this metabolite ([13]; in vivo): 43%
